From ChEMBL document CHEMBL5725928, “Substituted 4,5,6,7-tetrahydropyrazolo[1,5-A]pyrazine derivatives as casein kinase 1 D/E inhibitors” (2017)

Biological target: Casein kinase I isoform epsilon (Homo sapiens, UniProt P49674)
Test: Kinase Assay: The kinase assay was performed in V-bottom 384-well plates. The final assay volume was 30 μl prepared from 15 μl additions of enzyme, substrates (fluoresceinated peptide FL-AHA-KRRRAL-PSER-VASLPGL-OH and ATP) and test compounds in assay buffer (20 mM HEPES pH 7.4, 30 mM MgCl2, 0.015% Brij35 and 4 mM DTT). The reaction was incubated at room temperature for 22 hours and terminated by adding 45 μl of 35 mM EDTA to each sample. The reaction mixture was analyzed on the Caliper LABCHIP®3000 (Caliper, Hopkinton, Mass.) by electrophoretic separation of the unphosphorylated substrate and phosphorylated product. […] The final concentration of reagents in the assay were 200 pM CK1ε or CK1δ, 50 μM ATP, 1.5 μM FL-AHA-KRRRAL-PSER-VASLPGL-OH, and 1.6% DMSO. Dose response curves were generated to determine the concentration required to inhibit 50% of the kinase activity (IC50). Compounds were dissolved at 10 mM in dimethylsulfoxide (DMSO) and evaluated at eleven concentrations. IC50 values were derived by non-linear regression analysis.

Chain of Casein kinase I isoform epsilon (P49674 whole entry, canonical isoform): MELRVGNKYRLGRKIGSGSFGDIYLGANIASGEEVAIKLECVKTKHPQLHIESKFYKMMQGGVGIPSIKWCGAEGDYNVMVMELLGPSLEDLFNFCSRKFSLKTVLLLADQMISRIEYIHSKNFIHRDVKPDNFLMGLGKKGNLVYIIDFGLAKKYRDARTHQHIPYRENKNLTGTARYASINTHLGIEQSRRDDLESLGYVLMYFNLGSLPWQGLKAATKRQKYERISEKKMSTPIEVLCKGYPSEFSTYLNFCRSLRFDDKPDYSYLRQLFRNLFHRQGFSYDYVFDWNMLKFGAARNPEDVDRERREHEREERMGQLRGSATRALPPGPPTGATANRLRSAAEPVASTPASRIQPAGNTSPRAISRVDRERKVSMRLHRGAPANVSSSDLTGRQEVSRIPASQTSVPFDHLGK

Row | SMILES | IC50
1 | NC(=O)c1c(-c2ccc(F)c(Cl)c2)nn2c1CN(C(=O)Nc1cc(F)cc(C(F)(F)F)c1)CC2 | < 10 nM
2 | NC(=O)c1c(-c2ccc(F)c(Cl)c2)nn2c1CN(C(=O)Nc1ccc3c(c1)S(=O)(=O)C=C3)CC2 | < 10 nM
3 | NC(=O)c1c(-c2ccc(Cl)c(F)c2)nn2c1CN(C(=O)Nc1ccc(Cl)c(Cl)c1)CC2 | < 10 nM
4 | Cc1nc(-c2ccc(NC(=O)N3CCn4nc(-c5ccc(F)c(Cl)c5)c(C(N)=O)c4C3)cc2)cs1 | < 10 nM
5 | Cc1nc(-c2ccc(NC(=O)N3CCn4nc(-c5cccc(F)c5)c(C(N)=O)c4C3)cc2)cs1 | < 10 nM
6 | N#Cc1ccc(NC(=O)N2CCn3nc(-c4cnc(F)c(Cl)c4)c(C(N)=O)c3C2)cc1C(F)(F)F | < 10 nM
7 | NC(=O)c1c(-c2cccc(F)c2)nn2c1CN(C(=O)Nc1cc(Cl)cc(Cl)c1)CC2 | < 10 nM
8 | N#Cc1ccc(NC(=O)N2CCn3nc(-c4cccc(Cl)c4)c(C(N)=O)c3C2)cc1N1CCOCC1 | < 10 nM
9 | NC(=O)c1c(-c2ccc(F)c(Cl)c2)nn2c1CN(C(=O)Nc1ccc(F)cc1)CC2 | < 10 nM
10 | COc1cccc(-c2nn3c(c2C(N)=O)CN(C(=O)Nc2ccc(C#N)cc2)CC3)c1 | < 10 nM
11 | NC(=O)c1c(-c2cccc(F)c2)nn2c1CN(C(=O)NC1C3CC4CC(C3)CC1C4)CC2 (stereo not drawn) | < 10 nM
12 | NC(=O)c1c(-c2cc(F)cc(Cl)c2)nn2c1CN(C(=O)Nc1cc(F)cc(C(F)(F)F)c1)CC2 | < 10 nM
13 | Cc1ncc(-c2ccc(NC(=O)N3CCn4nc(-c5cccc(F)c5)c(C(N)=O)c4C3)cc2)o1 | < 10 nM
